From patent US11285189B2, “Compositions and uses of locally-applied antimicrobial synthetic cationic polypeptide(s) with enhanced performance and safety” (priority 2017, dated 2022) come the findings set out here.

A short description of series [1]: Surface tension, Du Nouy ring. The settings on record: samples at 0.1 mM, room temperature. The format is physicochemical.
Protocol: Samples were prepared at 0.1 mM and assessed using TA.XT2 Texture Analyzer with a 500 g load cell, 5 cm diameter Du Nouy ring and probe speed of 0.2 mm/s at room temperature.
Surface tension of various preparations of synthetic cationic polypeptide(s) in water. Samples were prepared at 0.1 mM and assessed using TA.XT2 Texture Analyzer with a 500 g load cell, 5 cm diameter Du Nouy ring and probe speed of 0.2 mm/s at room temperature.
Surface tension: effect of acetic acid as an additive.
A short description of series [2]: Kinematic viscosity, glass capillary (Ubbelohde) viscometers, 37° C. The format is physicochemical. Conditions: 1 and 2 wt %. Here is the method: FIGS. 13A-B. (a) Kinematic viscosity of various synthetic cationic polypeptide(s) in water at 1 wt % and measured using glass capillary viscometers (Ubbelohde viscometers) at a temperature of 37° C. (b) Kinematic viscosity of KrL-100/5.7 (lot BAC02) vs. bovine serum albumin; water is provided for reference.
FIG. 14. Kinematic viscosity of synthetic cationic polypeptide(s) with a lysine-L-leucine block sequence arrangement (KL) in water at 0.5 wt % and measured using glass capillary viscometers (Ubbelohde viscometers) at a temperature of 37° C.
FIG. 13A depicts kinematic viscosity values of various synthetic cationic polypeptide(s) in water at 1 wt % as measured using glass capillary viscometers (Ubbelohde viscometers). […] Albumin is an abundant blood protein and has a molecular weight of approximately 66.5 kDa and total chain length of approximately 583 amino acids units.
The latter has a longer overall chain length, a similar sized hydrophobic block, but a different composition of hydrophobic amino acid units (racemic D,L-leucine vs. enantiopure L-leucine).

In the case of `[H]/N=C(\N/C(=N/[H])NCCCCCCNC(=N)NC(=N)Nc1ccc(Cl)cc1)Nc1ccc(Cl)cc1` [chlorhexidine, chlorhexidine gluconate], the “effect on surface tension of water” value in series [1] is “little or no effect”.

Regarding “bovine serum albumin: abundant blood protein, approximately 66.5 kDa, approximately 583 amino acid units”, in series [2], the “effect on viscosity of aqueous preparations” value was “little, if any effect on viscosity”.

With polyhexamethylene biguanide [PHMB], the “effect on surface tension of water” value in series [1] was “little or no effect”.
